Source: patent US20260219274A1, “POLYOL SWEETNERS AND CARDIOVASCULAR AND THROMBOTIC EVENT RISK” (THE CLEVELAND CLINIC FOUNDATION, priority 2023, published 2026)

Assays:
[1] = tested on: stable subjects undergoing elective diagnostic cardiac evaluations (Discovery Cohort); conditions: in vivo
Description: Our first study employed a Discovery Cohort, where we used untargeted metabolomics (semi-quantitative analyses) to analyze plasma samples from 1,157 stable subjects to identify circulating analytes whose levels were associated with future development of adverse cardiovascular events over an ensuing 3 year period. The Discovery Cohort included sequential stable patients (ages 18 years or above) undergoing elective diagnostic coronary angiography for risk evaluation at a quaternary referral center between 2001 and 2007 (GeneBank at the Cleveland Clinic; clinicaltrials.gov identifier: NCT00590200) with clinical and longitudinal outcomes.
In both, the Discovery and Validation Cohorts, Major Adverse Cardiovascular Events (MACE) were defined as death, nonfatal myocardial infarction, or nonfatal cerebrovascular accident (stroke) during follow-up. Adjudicated long term survival data were collected through medical records review and Social Security Death Index query. Cardiovascular disease (CVD) was indicated as presence of peripheral artery disease or coronary artery disease, indicated as any clinical history of myocardial infarction, coronary revascularization (including percutaneous coronary intervention, coronary artery bypass surgery), or angiographic evidence of significant stenosis (≥50%) in 1 or more major coronary arteries. Estimated glomerular filtration rate (eGFR) in both cohorts was calculated based on the recent Chronic Kidney Disease Epidemiology Collaboration 2021 CKD-EPI Creatinine equation.^37 Platelet-related hematology analyses were performed with an Advia 120 hematology analyzer (Siemens, New York, NY).^38 Use of anti-platelet agents (=1556) was defined as either aspirin or a P2Y12 agent or both. All observational studies in this example are reported in compliance with the STrengthening the Reporting of Observational studies in Epidemiology (STROBE)-Statement.^39 Information on gender of study participants of the Discovery and Validation Cohorts is reported in Table 1-3.
For untargeted mass spectrometry analyses, subject plasma samples were derivatized and run on GC-MS analyses as previously described.^19 Raw data files were processed using the metabolomics BinBase database.^45
Continuous variables are summarized as median (interquartile range [IQR]), and categorical variables are presented as %. Difference between groups (e.g. tertiles or quartiles) were examined using Kruskal Wallis test for continuous variables and chisq (χ^2) test for categorical variables. Kaplan-Meier analysis with Cox proportional-hazards regression was used for time-to-event analysis to determine hazard ratios (HR) and 95% confidence intervals (CI) for incident MACE. Adjustments included traditional cardiovascular risk factors (age, sex, diabetes mellitus, systolic blood pressure, low-density lipoprotein cholesterol levels, high-density lipoprotein cholesterol levels, triglyceride levels, smoking status) and high-sensitivity C-reactive protein (hsCRP). We confirmed that the proportionality hazards assumptions were met using the Schoenfeld residuals against the transformed time. Mann-Whitney U-test or Wilcoxon matched-pairs signed rank test were applied to continuous variables to examine differences between 2 groups. Kruskal-Wallis test with Dunn's post hoc test was used for pairwise multiple comparisons of ranked data. Two-way ANOVA with Šidák's multiple comparison post hoc test was used for multiple-group comparisons of aggregometry responses using different concentrations of agonists. For analysis of collagen-dependent platelet adhesion in whole blood, a two-way repeated measures ANOVA with Sidák's multiple comparison post hoc test was used. All reported measurements represent distinct samples. Data analyses were performed with R software (version 4.0.2) and GraphPad Prism software (version 9.1.2). A two-sided P<0.05 was considered statistically significant. […]

[2] = tested on: washed human platelets; experiment: Platelet flow cytometry assay (P-selectin, PAC-1); assay type: cell-based; conditions: for ADP-stimulated P-selectin surface expression / ADP-stimulated glycoprotein α2β3 (GP IIb/IIIa) activation: pre-incubation with the polyol, ADP 2 μM
Method: Antibody staining of washed platelets for flow cytometry was performed as described previously^41 with further information outlined in additional methods. […]
Washed platelets and antibody staining for flow cytometry was performed as described previously using sodium citrate (0.109 M) as anti-coagulant^51. Washed platelets were separated by centrifugation at 500×g for 10 min and re-suspended in modified Hank's buffered salt solution without PGE1. Final platelet suspensions (100 μL; 2×10^8 platelets/mL) were then pre-incubated with erythritol, glucose or 1,5-AHG (at indicated concentrations) for 30 min at 22° C. Platelets were then stimulated with 2 μM ADP for 10 min and incubated with PE conjugated anti-P-selectin (CD62P-PE, Catalogue #555524, BD PharMingen, San Diego, CA, USA; 2.5 μL/100 μL) or Fluorescein isothiocyanate (FITC) conjugated PAC1 (binds only to active conformation of GP IIb/IIIa, Catalogue #3 40507, BD PharMingen, San Diego, CA, USA; 5 μL/100 μL) or isotype control antibody (PE IgG isotype control, Catalogue #555749 or FITC IgM Isotype control, Catalogue #555583, BD PharMingen, San Diego, CA, USA) in the dark for 20 min. The platelet suspensions were then fixed with 100 μL of 2% paraformaldehyde. Data was acquired on a flow cytometer (FACS LSR Fortessa, BD Biosciences, Franklin Lakes, New Jersey, USA). Twenty thousand (20,000) events were collected. The data was analyzed with FACSDiva Software (v.9.0) (BD Biosciences). Platelets were gated to exclude doublets (FIG. 28) and the raw mean fluorescent intensity (MFI) of either P-selectin (CD62P) or PAC-1 was quantified.

SMILES	HR for MACE [1]	HR with 95% CI [1]	adjusted HR for incident MACE [1]	ADP-stimulated P-selectin surface expression [2]	ADP-stimulated glycoprotein α2β3 (GP IIb/IIIa) activation [2]	erythritol concentration eliciting significant stimulus-dependent enhancement in P-selectin surface expression ([2]; threshold, FIG. 17) [µM]	erythritol concentration eliciting significant stimulus-dependent enhancement in activated GP IIbIIIa surface expression ([2]; threshold, FIG. 17) [µM]	adjusted HR [95% CI] for incident (3 year) MACE [1]	hazard ratio (HR) [95% CI] for incident (3 year) MACE [1]
OC[C@@H](O)[C@@H](O)CO [erythritol]	3.22 [95% CI 1.91-5.41]	1.31 (1.17-1.46)	2.95 [1.70-5.12]	dose-dependent enhancement	dose-dependent enhancement	18	4.5	–	–
OC[C@@H](O)[C@H](O)[C@@H](O)CO [xylitol]	–	–	–	dose-dependent enhancement	dose-dependent enhancement	–	–	1.64 [1.05-2.56]	1.63 [1.04-2.53]
